What was measured:
in vitro [1] = settings: hepatocytes
Procedure: (§1) In a further assay, isoxazolines (fluralaner and afoxolaner) and control compounds (7-Ethoxycoumarin and 7-Hydroxycoumarin [Sigma]) were dissolved in DMSO at 10 and 30 mM respectively, then diluted first 20-fold with 45% methanol in water and a further 10-fold in pre-warmed Williams' Medium E. Cryopreserved human, dog and rat hepatocytes (In Vitro Technologies) were thawed, isolated by percoll gradient and suspended in Williams' Medium E. Cells were then dispensed into the wells of 96-well plates containing 10 μL of diluted compounds, to reach a final concentration of 0.5×10^6 cells/mL and 1 μM of isoxazolines or 3 μM of control. After an incubation at 37° C. of 0, 15, 30, 60 or 90 minutes, the reaction was stopped with acetonitrile. The samples were then shaken for 10 minutes at 500 rpm and centrifuged at 3220 g for 20 minutes. Supernatants were transferred and stored at 4° C. until LC-MS-MS analysis.

in vitro [2] = settings: human, hepatocytes
Procedure: as §1

in vitro [3] = settings: hepatocytes; remark: listed apart in the source
Procedure: as §1

[4] = test system: Aedes aegypti New Orleans; test: WHO paper contact assay, Aedes aegypti New Orleans; format: in vivo; settings: papers 0.75% permethrin, 0.05% deltamethrin, 4% DDT, 0.1% bendiocarb, 1.0% fenitrothion, 4% dieldrin
Procedure: (§2) Mosquito colonies utilized in the examples were generally maintained as described: The colony of Anopheles stephensi (Sind-Kasur Nijmegen strain) was maintained at the Radboud University Medical Center, Nijmegen, The Netherlands, by 30° C. and 70-80% humidity and on a 12/12 hour day/night cycle. The Anopheles gambiae strains Kisumu and Tiassalé and the Aedes aegypti strains New Orleans and Cayman were reared at the Liverpool Insect Testing Establishment, Liverpool, UK. Kisumu is an insecticide susceptible lab strain. New Orleans was originally colonized by the Centers for Disease Control and Prevention. The Tiassalé strain was colonized from Southern Cote D'Ivoire where resistance to all classes of insecticide is found and the Cayman strain was colonized from Grand Cayman, where Aedes aegypti are highly resistant to DDT and pyrethroid insecticides. Both resistant strains are routinely selected with insecticides to ensure the maintenance of resistance, 0.75% permethrin for Cayman and 0.05% deltamethrin for Tiassalé, and profiled for resistance to a range of insecticides, including 4% dieldrin, to which Tiassalé is resistant but Cayman is susceptible.
(§3) Without being bound by theory, isoxazolines occupy a binding site that is distinct from the targets of known modulators of ionotropic GABA receptors. In line with this notion, fluralaner and afoxolaner were fully active against the Anopheles gambiae Tiassalé strain that carries the resistance-to-dieldrin (rdl) mutation in the GABA receptor. In addition, they were equipotent against pyrethroid- and carbamate-resistant strains carrying mutations in the kdr sodium channel and acetylcholine esterase (Ace-1) genes respectively. […] The results are shown as percentage of survival (on over 100 mosquitoes for each case), the bold and underlined numbers indicate values that fall within the criteria for resistance.

[5] = test system: Anopheles gambiae Tiassale 13; test: WHO paper contact assay, Anopheles gambiae Tiassale; format: in vivo; settings: papers 0.75% permethrin, 0.05% deltamethrin, 4% DDT, 0.1% bendiocarb, 1.0% fenitrothion, 4% dieldrin
Procedure: as §2, §3

Aedes aegypti Cayman = test: WHO paper contact assay, Aedes aegypti Cayman; format: in vivo; settings: papers 0.75% permethrin, 0.05% deltamethrin, 4% DDT, 0.1% bendiocarb, 1.0% fenitrothion, 4% dieldrin
Procedure: as §2, §3

Anopheles gambiae Kisumu = test: WHO paper contact assay, Anopheles gambiae Kisumu; format: in vivo; settings: papers 0.75% permethrin, 0.05% deltamethrin, 4% DDT, 0.1% bendiocarb, 1.0% fenitrothion, 4% dieldrin
Procedure: as §2, §3

[6] = test system: Anopheles gambiae (Tiassalé); test: Membrane feeding, Anopheles gambiae Tiassalé strain (rdl mutation); format: in vivo; settings: Tiassale strain; membrane feeding
Procedure: as §2
Isoxazoline compounds fluralaner or afoxolaner were reconstituted in 50% human serum and 50% red blood cells and administered to adult Anopheles stephensi mosquitos via standard membrane feeding. Lethality was assessed 1, 2 or 8 days after exposure. FIG. 2A represents a plot of viable Anopheles stephensi versus fluralaner concentration at each day of assessment. FIG. 2B represents a plot of viable Anopheles stephensi versus afoxolaner concentration at each day of assessment. […] The IC50 values of each compound for Anopheles death were determined by logistic regression using a least squares method to find the best fit and are shown in Table 1. IC50 values were calculated by applying a four-parameter logistic regression model using a least-squares method to find the best fit using the Graphpad Prism 5.0 software package.
The membrane feeding experiment described was repeated using the insecticide dieldrin on two strains of Anopheles gambiae: Kisumu and Tiassale. The Tiassale strain has a mutation in the resistance to dieldrin (rdl) locus, which codes for γ-aminobutyric acid (GABA) receptor. The Tiassale strain was resistant to pyrethroids, carbamate, DDT and dieldrin (knockdown resistance (kdr), Ace and rdl mutations). The Kisumu strain was susceptible to killing by all tested insecticides. FIG. 3A represents a plot of percentage survival of Kisumu and Tiassale strains of Anopheles gambiae versus dieldrin concentration. FIG. 3B represents a plot of survival of the Kisumu and Tiassale strains at 10 μM dieldrin. […] Both figures indicate that the dose-response in systemic feed experiment performed here in allows for identification of a resistance profile.
The feed experiment in Anopheles gambiae was repeated using the isoxazoline compounds fluralaner and afoxolaner to determine if the rdl mutation confers resistance to the isoxazoline insecticides. Isoxazoline insecticides target Rdl, but in a location thought to be different from dieldrin. The mosquitos were fed fluralaner or afoxolaner at various concentrations and lethality was assessed after 24 hours. FIG. 4A represents a plot of percentage survival of Kisumu and Tiassale strains of Anopheles gambiae versus fluralaner concentration. FIG. 4B represents a plot of percentage survival of Kisumu and Tiassale strains of Anopheles gambiae versus afoxolaner concentration.

malaria transmission = settings: cited from earlier work

Compound	percentage of survival [4] [%]	percentage of survival [5] [%]	percentage of survival (Aedes aegypti Cayman) [%]	percentage of survival (Anopheles gambiae Kisumu) [%]	also measured
CCOc1ccc2ccc(=O)oc2c1 [7-Ethoxycoumarin]					half-life (in vitro [1]; rat): 61.8 min; hepatocyte CLint (in vitro [1]; rat): 22.4 µL/min/1e6 cells; half-life (in vitro [2]): 20.1 min; hepatocyte CLint (in vitro [2]): 69.1 µL/min/1e6 cells; half-life (in vitro [3]; dog): 14 min; hepatocyte CLint (in vitro [3]; dog): 99.3 µL/min/1e6 cells
O=c1ccc2ccc(O)cc2o1 [7-Hydroxycoumarin]					half-life (in vitro [1]): 4.8 min; hepatocyte CLint (in vitro [1]): 290 µL/min/1e6 cells; half-life (in vitro [2]): 14.7 min; hepatocyte CLint (in vitro [2]): 94.1 µL/min/1e6 cells; half-life (in vitro [3]): 20.4 min; hepatocyte CLint (in vitro [3]): 68.1 µL/min/1e6 cells
CNC(=O)Oc1cccc2c1OC(C)(C)O2 [Bendiocarb]	27	11	20	100	
Clc1ccc(C(c2ccc(Cl)cc2)C(Cl)(Cl)Cl)cc1 [DDT]	100	3	0	100	
CC1(C)[C@H](C(=O)O[C@H](C#N)c2cccc(Oc3ccccc3)c2)[C@@H]1C=C(Br)Br [Deltamethrin]	100	10	36	100	
ClC1=C(Cl)[C@]2(Cl)[C@@H]3[C@@H]4C[C@@H]([C@H]5O[C@@H]45)[C@@H]3[C@@]1(Cl)C2(Cl)Cl [Dieldrin]	100	21	95	96	resistance of strain to killing (in words) [6]: confers resistance to killing by dieldrin
COP(=S)(OC)Oc1ccc([N+](=O)[O-])c(C)c1 [Fenitrothion]	100	96	100	100	
CC1(C)C(C=C(Cl)Cl)C1C(=O)OCc1cccc(Oc2ccccc2)c1 (stereo not shown) [Permethrin]	100	3	7	100	
ivermectin					estimated reduction in new malaria cases in children under 5 (malaria transmission; MDA studies): 16%; reduction in infectious Anopheles gambiae (malaria transmission; MDA studies): ~80%; estimated reduction in transmission potential (malaria transmission; co-treatment with artemether-lumefantrine, effect short-lived): 35%

From patent US20200061026A1, “METHODS AND COMPOSITIONS FOR PREVENTING VECTOR-BORNE DISEASE TRANSMISSION” (The Scripps Research Institute, priority 2016, published 2020)
